Reference: patent publication US20160311795A1, “PYRIMIDINE DIAMINE DERIVATIVES AS INHIBITORS OF CYTOSOLIC HSP90” (CALASIA PHARMACEUTICALS, INC., priority 2012, published 2016)

What was measured:
Assay type in all cases: cell-based
Akt1 in LnCaP cells = experiment: Akt1 degradation in cell lysates, ELISA; conditions: Homo sapiens, 48 h
Protocol: Tumor cell lines (LnCaP) were obtained from the Sanford Burnham Medical Research Institute (La Jolla, Calif.), LnCaP cells were cultured in culture medium (RPMI-glutamax, 10% FCS, 100 units/ml penicillin, and 100 μg/ml streptomycin). Cells were passaged after lifting using 0.25% trypsin/EDTA, and 3×10^5 cells were seeded in each well of six well plates (total volume 2.5 mL/well). After the cells were cultured for 24 h, increasing concentrations of Hsp90 inhibitor were added to wells in triplicate from DMSO-containing stock solutions and mixed by gently by stirring. Final DMSO concentration in all wells was 0.25%. The treated cells were then cultured for 48 h prior to lysate preparation. […] The protein concentration in the cell lysates was determined using the BCA protein assay kit used according to the manufacturer's recommendations. […] Two hundred μL of BCA Protein Assay Kit reagent was added and the mixtures were incubated at 37° C. for 30 min Protein concentrations were determined using a micro-titer plate reader (Model #Synergy HT; BioTek Inc., Winooski, Vt.).
Akt1 levels in the cell lysates were measured using kits from R&D Systems used according to the manufacturer's recommendations. […] Akt1 levels were determined using a micro-titer plate reader (Model #Synergy HT; BioTek Inc., Winooski, Vt.). […] Fluorescence intensities of the dilutions were measured to obtain a standard curve. […]

U87MG = experiment: Efficacy in GBM cells, ADP-GLO; conditions: Homo sapiens, U-87 MG
[1] = tested on: Caspase 3/7 activity in MBA-MD-231 cells; experiment: Cellular Caspase-3/7 luminescence assay; conditions: MBA-MD-231, 72 hours
Protocol: (§1) Further, the effect of SBI-0640725 on cellular caspase levels was also quantitated in U251MG, MBA-MD-231 and HepG2 cells. Each cell type was treated with increasing concentrations of SBI-0640725 for 72 hours. Quantification of total cellular Caspase-3 and 7 activity was accomplished using a Caspase-3/7 luminescence assay kit (Promega) according to the manufacturer's recommendations, and analyzed with a POLARstar Omega micro-titer plate reader (BMG). […] Caspase activity is a marker for apoptotic cell death.

[2] = tested on: Caspase 3/7 activity in HepG2 cells; experiment: Cellular Caspase-3/7 luminescence assay; conditions: HepG2, 72 hours
Protocol: as §1

[3] = tested on: Hsp70 in MBA-MD-231 cells; experiment: Hsp70 induction, ELISA; conditions: MBA-MD-231, 48 hours
Protocol: Experiments were performed using U251 MG and MBA-MD-231 cells to also measure induction of Hsp 70 in response to treatment with SBI-0640725. […] For Hsp70 induction measurements, cells were treated with increasing concentrations of SBI-0640725 for 48 hours, and Hsp70 levels were measured in cell lysates using ELISA.

Row | Compound | IC50 (Akt1 in LnCaP cells) [µM] | EC50 (U87MG) [µM] | Caspase 3/7 activity [1] | Caspase 3/7 activity [2] | induction of Hsp70 [3]
1 | COc1c(C)cnc(CN(CCc2ccccc2)c2cc(Cl)nc(N)n2)c1C [SBI-0639353, 6-Chloro-N4-((4-methoxy-3,5-dimethylpyridin-2-yl)methyl)-N4-phenethylpyrimidine-2,4-diamine] | 5.4 | – | – | – | –
2 | COc1c(C)cnc(CN(CCc2ccc(F)cc2)c2cc(Cl)nc(N)n2)c1C [SBI-0640725] | – | 6.7 | increase in Caspase 3/7 activity | increase in Caspase 3/7 activity | caused induction of Hsp70
